Measurements taken from ChEMBL document CHEMBL3885861, “Open TG-GATES”.

Species on record: Rattus norvegicus
Assay: Open TG-GATES - Regimen: Daily Repeat
Assay type: toxicity, organism-based, Sprague-Dawley
Design: regimen Daily Repeat, gender Male, age 6 weeks
Conditions: in vivo, po, 30 mg/kg, route gavage, dose level Low; for APTT / Bas / Eos / Fbg / Hb / Ht / Lym / MCH / MCHC / MCV / Mono / Neu / PT / Plat / RBC / Ret / WBC: tissue Blood; for KIDNEY_L / KIDNEY_R / KIDNEY_TOTAL: tissue Kidney; for LIVER: tissue Liver; for A/G / ALP / ALT / AST / BUN / CRE / Ca / Cl / DBIL / GLC / IP / K / LDH / Na / PL / RALB / TBIL / TC / TG / TP / gamma-GTP: tissue Plasma

CCc1oc2ccccc2c1C(=O)c1cc(I)c(O)c(I)c1 [BENZIODARONE]
TERMINAL_BW (72 h, time 3 day): 242 g
APTT (72 h, time 3 day): 17.5 s
Bas (72 h, time 3 day): 0%
Eos (72 h, time 3 day): 1%
Fbg (72 h, time 3 day): 216.8 mg/dL
Hb (72 h, time 3 day): 13.8 g/dL
Ht (72 h, time 3 day): 40.8%
Lym (72 h, time 3 day): 79.4%
MCH (72 h, time 3 day): 21.9 pg
MCHC (72 h, time 3 day): 33.8%
MCV (72 h, time 3 day): 64.7 fL
Mono (72 h, time 3 day): 6.4%
Neu (72 h, time 3 day): 13.2%
PT (72 h, time 3 day): 11.7 s
Plat (72 h, time 3 day): 115.3 x10_4/uL
RBC (72 h, time 3 day): 629.4 x10_4/ul
Ret (72 h, time 3 day): 6.5%
WBC (72 h, time 3 day): 104.5 x10_2/uL
KIDNEY_L (72 h, time 3 day): 1.1 g
KIDNEY_R (72 h, time 3 day): 1.1 g
KIDNEY_TOTAL (72 h, time 3 day): 2.2 g
LIVER (72 h, time 3 day): 12.7 g
A/G (72 h, time 3 day): 1.8
ALP (72 h, time 3 day): 1087.2 IU/L
ALT (72 h, time 3 day): 42.6 IU/L
AST (72 h, time 3 day): 67.4 IU/L
BUN (72 h, time 3 day): 16.8 mg/dL
CRE (72 h, time 3 day): 0.5 mg/dL
Ca (72 h, time 3 day): 10.7 mg/dL
Cl (72 h, time 3 day): 104 meq/L
DBIL (72 h, time 3 day): 0.016 mg/dL
GLC (72 h, time 3 day): 191.2 mg/dL
IP (72 h, time 3 day): 7.8 mg/dL
K (72 h, time 3 day): 4.5 meq/L
LDH (72 h, time 3 day): 103.8 IU/L
Na (72 h, time 3 day): 141 meq/L
PL (72 h, time 3 day): 155.4 mg/dL
RALB (72 h, time 3 day): 3.6 g/dL
TBIL (72 h, time 3 day): 0.3 mg/dL
TC (72 h, time 3 day): 79.4 mg/dL
TG (72 h, time 3 day): 74.4 mg/dL
TP (72 h, time 3 day): 5.7 g/dL
gamma-GTP (72 h, time 3 day): 1.6 IU/L
TERMINAL_BW ([…], time 7 day): 274.9 g
TERMINAL_BW ([…], time 14 day): 323 g
TERMINAL_BW ([…], time 28 day): 399.3 g
APTT ([…], time 7 day): 17.5 s
Bas ([…], time 7 day): 0%
Eos ([…], time 7 day): 1%
Fbg ([…], time 7 day): 221.6 mg/dL
Hb ([…], time 7 day): 14.2 g/dL
Ht ([…], time 7 day): 41.8%
Lym ([…], time 7 day): 84.6%
MCH ([…], time 7 day): 21.5 pg
MCHC ([…], time 7 day): 34%
MCV ([…], time 7 day): 63.2 fL
Mono ([…], time 7 day): 4.6%
Neu ([…], time 7 day): 10%
PT ([…], time 7 day): 11.9 s
Plat ([…], time 7 day): 117.9 x10_4/uL
RBC ([…], time 7 day): 661.6 x10_4/ul
Ret ([…], time 7 day): 4.7%
WBC ([…], time 7 day): 111.9 x10_2/uL
APTT ([…], time 14 day): 18.1 s
Bas ([…], time 14 day): 0%
Eos ([…], time 14 day): 1%
Fbg ([…], time 14 day): 223.6 mg/dL
Hb ([…], time 14 day): 14.6 g/dL
Ht ([…], time 14 day): 43.4%
Lym ([…], time 14 day): 82.8%
MCH ([…], time 14 day): 20.5 pg
MCHC ([…], time 14 day): 33.6%
MCV ([…], time 14 day): 61.1 fL
Mono ([…], time 14 day): 5.2%
Neu ([…], time 14 day): 11.2%
PT ([…], time 14 day): 11.8 s
Plat ([…], time 14 day): 117.5 x10_4/uL
RBC ([…], time 14 day): 710 x10_4/ul
Ret ([…], time 14 day): 2.5%
WBC ([…], time 14 day): 109.1 x10_2/uL
APTT ([…], time 28 day): 18.9 s
Bas ([…], time 28 day): 0%
Eos ([…], time 28 day): 1.6%
Fbg ([…], time 28 day): 231.2 mg/dL
Hb ([…], time 28 day): 15.2 g/dL
Ht ([…], time 28 day): 45.4%
Lym ([…], time 28 day): 83.2%
MCH ([…], time 28 day): 19 pg
MCHC ([…], time 28 day): 33.6%
MCV ([…], time 28 day): 56.7 fL
Mono ([…], time 28 day): 4.8%
Neu ([…], time 28 day): 11%
PT ([…], time 28 day): 12 s
Plat ([…], time 28 day): 124.3 x10_4/uL
RBC ([…], time 28 day): 799.8 x10_4/ul
Ret ([…], time 28 day): 3%
WBC ([…], time 28 day): 128.8 x10_2/uL
KIDNEY_L ([…], time 7 day): 1.2 g
KIDNEY_R ([…], time 7 day): 1.2 g
KIDNEY_TOTAL ([…], time 7 day): 2.4 g
KIDNEY_L ([…], time 14 day): 1.3 g
KIDNEY_R ([…], time 14 day): 1.3 g
KIDNEY_TOTAL ([…], time 14 day): 2.5 g
KIDNEY_L ([…], time 28 day): 1.4 g
KIDNEY_R ([…], time 28 day): 1.4 g
KIDNEY_TOTAL ([…], time 28 day): 2.9 g
LIVER ([…], time 7 day): 14.7 g
LIVER ([…], time 14 day): 15.7 g
LIVER ([…], time 28 day): 18.7 g
A/G ([…], time 7 day): 1.7
ALP ([…], time 7 day): 918 IU/L
ALT ([…], time 7 day): 32.6 IU/L
AST ([…], time 7 day): 63.4 IU/L
BUN ([…], time 7 day): 18 mg/dL
CRE ([…], time 7 day): 0.6 mg/dL
Ca ([…], time 7 day): 10.8 mg/dL
Cl ([…], time 7 day): 103.4 meq/L
DBIL ([…], time 7 day): 0.018 mg/dL
GLC ([…], time 7 day): 191.8 mg/dL
IP ([…], time 7 day): 7.3 mg/dL
K ([…], time 7 day): 4.6 meq/L
LDH ([…], time 7 day): 101.6 IU/L
Na ([…], time 7 day): 139.6 meq/L
PL ([…], time 7 day): 153.2 mg/dL
RALB ([…], time 7 day): 3.7 g/dL
TBIL ([…], time 7 day): 0.3 mg/dL
TC ([…], time 7 day): 73.6 mg/dL
TG ([…], time 7 day): 110.6 mg/dL
TP ([…], time 7 day): 5.9 g/dL
gamma-GTP ([…], time 7 day): 2 IU/L
A/G ([…], time 14 day): 1.7
ALP ([…], time 14 day): 914 IU/L
ALT ([…], time 14 day): 31.8 IU/L
AST ([…], time 14 day): 63.2 IU/L
BUN ([…], time 14 day): 19.6 mg/dL
CRE ([…], time 14 day): 0.5 mg/dL
Ca ([…], time 14 day): 10.3 mg/dL
Cl ([…], time 14 day): 105.2 meq/L
DBIL ([…], time 14 day): 0.008 mg/dL
GLC ([…], time 14 day): 200.4 mg/dL
IP ([…], time 14 day): 6.7 mg/dL
K ([…], time 14 day): 4.6 meq/L
LDH ([…], time 14 day): 109.6 IU/L
Na ([…], time 14 day): 141.2 meq/L
PL ([…], time 14 day): 152.8 mg/dL
RALB ([…], time 14 day): 3.9 g/dL
TBIL ([…], time 14 day): 0.3 mg/dL
TC ([…], time 14 day): 71.6 mg/dL
TG ([…], time 14 day): 159.4 mg/dL
TP ([…], time 14 day): 6.2 g/dL
gamma-GTP ([…], time 14 day): 1.8 IU/L
A/G ([…], time 28 day): 1.8
ALP ([…], time 28 day): 629.8 IU/L
ALT ([…], time 28 day): 36.4 IU/L
AST ([…], time 28 day): 63.8 IU/L
BUN ([…], time 28 day): 20.2 mg/dL
CRE ([…], time 28 day): 0.7 mg/dL
Ca ([…], time 28 day): 10.9 mg/dL
Cl ([…], time 28 day): 104.2 meq/L
DBIL ([…], time 28 day): 0.01 mg/dL
GLC ([…], time 28 day): 194.4 mg/dL
IP ([…], time 28 day): 6.4 mg/dL
K ([…], time 28 day): 4.4 meq/L
LDH ([…], time 28 day): 121.4 IU/L
Na ([…], time 28 day): 139.6 meq/L
PL ([…], time 28 day): 156.6 mg/dL
RALB ([…], time 28 day): 4 g/dL
TBIL ([…], time 28 day): 0.3 mg/dL
TC ([…], time 28 day): 78.4 mg/dL
TG ([…], time 28 day): 123.8 mg/dL
TP ([…], time 28 day): 6.3 g/dL
gamma-GTP ([…], time 28 day): 1.8 IU/L
